Like-named read-outs stand apart in the source and are kept apart here.
How the values were obtained:
[1] = system: Botrytis cinerea; experiment: Ex vivo mycelial growth, growth rate method; type: cell-based; details: 1 mg/mL
[2] = system: Thanatephorus cucumeris; experiment: Ex vivo mycelial growth, growth rate method; type: cell-based; details: 1 mg/mL; for inhibition at 1000 µg/mL: mycelial growth
[3] = system: damping-off (P. aphanidermatum, P capsici); experiment: In-vivo control of pepper damping-off in a greenhouse (sick soil); details: 0.80 mg/mL, 200 mL liquor per pot
Description: (§1) (2) In-Vivo Determination Method • Sick soil of damping-off (P. aphanidermatum, P capsici) was collected from the fields of tomatoes, eggplants and peppers in solar greenhouse, and mixed evenly in equal proportion. Tomatoes (Variety: Song Tian Fen Yang Yang, 100 grains), eggplants (Variety: Lanza No. 2 F1 long eggplant, 100 grains), pepper (Longjiao 2 F1, 100 grains) were seeded quantitatively with the sick soil in pots (diameter: 15 cm) in a greenhouse, additionally with sterile vermiculite as the control (each 100 grains for determining the germination rate). […] The computational formula is as below: Mortality of Seedlings (%)=[number of survival seedlings in the seeded grains−number of seeded grains×(100%−germination rate)]/number of seeded grains×100; Control Effect (%)=(mortality of control seedlings−mortality of treated seedlings)/mortality of control seedlings×100.

[4] = system: F. graminearum; experiment: microbe, parasite or virus in culture; type: cell-based; details: for inhibition at 1000 µg/mL: Fusarium graminearum, read-out: Inhibition Rate
[5] = system: plant pathogenic fungi; experiment: organism not typed; type: cell-based
[6] = system: F. oxysporum f. sp. lini; experiment: Ex vivo mycelial growth, growth rate method; type: cell-based; details: 1 mg/mL; for inhibition at 1000 µg/mL: Fusarium oxysporum
[7] = system: Erysiphe cucurbitacearum or Sphaerotheca cucurbitae; experiment: In-vivo control of zucchini powdery mildew in a greenhouse
Description: (2) In-Vivo Determination Method • Zucchini (Variety: Wuwei Xianglin extra-early 1st generation) were cultured in pots in a greenhouse, and inoculated with Erysiphe cucurbitacearum or Sphaerotheca cucurbitae at the stage of 3 to 4 leaves. […] Both sides of the leaves were sprayed evenly with a small hand-held sprayer so that the leaves were wetted by the liquor without loss. Applications were conducted every 7 days consecutively for 4 times. 10 days after the fourth application, the number of disease leaves at each grade of powdery mildew was investigated for the whole plant following the grading standard of 9 grades, to calculate the disease index and the control effect. The computational formula is as below: Disease index=[(Number of disease leaves at each grade×Corresponding grade value)/(Total number of investigated leaves×9)]×100; Control effect=(Disease index of the clear water control−Treated disease index)/Disease index of the clear water control×100.

[8] = system: Pyricularia grisea; experiment: microbe, parasite or virus in culture; type: cell-based; details: for inhibition at 1000 µg/mL: read-out: Inhibition Rate
[9] = system: F. verticillioide; experiment: Ex vivo mycelial growth, growth rate method; type: cell-based; details: 1 mg/mL; for inhibition at 1000 µg/mL: mycelial growth
[10] = system: Sclerotinia sclerotiorum; experiment: Ex vivo mycelial growth, growth rate method; type: cell-based; details: 1 mg/mL
[11] = system: Mycosphaerlla melonis; experiment: Ex vivo mycelial growth, growth rate method; type: cell-based; details: 1 mg/mL
[12] = system: Valsa mali; experiment: Ex vivo mycelial growth, growth rate method; type: cell-based; details: 1 mg/mL; for inhibition at 1000 µg/mL: Cytospora mali, mycelial growth
[13] = system: Gaeumannomyces graminis var. graminis and G. graminis var. tritici; experiment: Ex vivo mycelial growth, growth rate method; type: cell-based; details: 1 mg/mL; for inhibition at 1000 µg/mL: mycelial growth
[14] = system: Coniella diplodiella; experiment: Ex vivo mycelial growth, growth rate method; type: cell-based; details: 1 mg/mL; for inhibition at 1000 µg/mL: mycelial growth
[15] = system: C. gossypii; experiment: Ex vivo mycelial growth, growth rate method; type: cell-based; details: 1 mg/mL; for inhibition at 1000 µg/mL: Colletotrichum gossypii
[16] = system: Fusarium graminearum; experiment: microbe, parasite or virus in culture; type: cell-based; details: for Average Diameter of the Colony: Fusarium graminearum (first line), 1 mg/mL; for inhibition at 1000 µg/mL: Fusarium graminearum, read-out: Inhibition Rate
[17] = system: F. oxysporum f. sp. vasinfectum; experiment: Ex vivo mycelial growth, growth rate method; type: cell-based; details: 1 mg/mL; for inhibition at 1000 µg/mL: Fusarium oxysporum
[18] = system: Exserohilum turcicum; experiment: Ex vivo mycelial growth, growth rate method; type: cell-based; details: 1 mg/mL
[19] = system: E. polygoni; experiment: In-vivo control of marrow bean powdery mildew in a greenhouse
Description: (2) In-Vivo Determination Method • Marrow bean (Variety: Thailand Jiadouwang) were cultured in pots in a greenhouse, and inoculated with E. polygoni at the stage of 4 leaves. […] Both sides of the leaves were sprayed evenly with a small hand-held sprayer so that the leaves were wetted by the liquor without loss. Applications were conducted every 7 days consecutively for 4 times. 10 days after the fourth application, the number of disease leaves at each grade of powdery mildew was investigated for the whole plant following the grading standard of 9 grades, to calculate the disease index and the control effect.

[20] = system: Pythium aphanidermatum; experiment: Ex vivo mycelial growth, growth rate method; type: cell-based; details: 1 mg/mL; for inhibition at 1000 µg/mL: mycelial growth
[21] = system: E. cichoracearum; experiment: Field efficiency test on cucumber powdery mildew; details: 0.50 mg/mL (active ingredients)
Description: The first application was started on Jun. 15, 2018, and E. cichoracearum was inoculated on June 17th (the diseased leaves were harvested from the solar greenhouse near the military airfield at Xiaguanying town, Yuzhong County, moisturized in the greenhouse for 2 days, then shredded, and filtered over a gauze, the filtrate was sprayed onto both sides of the cucumber leaves with the cone nozzle of an electric sprayer for inoculation). The second, third and fourth applications were conducted on June 23rd, July 2nd, and July 9th respectively, the water consumptions of which were adjusted promptly according to the amount of water desired for spraying evenly onto both sides of the control leaves. 10 days after the fourth application, the number of disease leaves at each grade of powdery mildew was investigated following the grading standard of 9 grades, to calculate the disease index and the control effect.

[22] = system: Botryosphaeria berengeriana; experiment: Ex vivo mycelial growth, growth rate method (line 'Botryosphaeria berengeriana', r34); type: cell-based; details: Botryosphaeria berengeriana (second line), 1 mg/mL; for inhibition at 1000 µg/mL: mycelial growth
[23] = system: Phytophthora infestans; type: cell-based; details: Phytophthora infestans (second line), 1 mg/mL
[24] = system: Botryosphaeriana berengeriana; experiment: Ex vivo mycelial growth, growth rate method (line 'Botryosphaeriana berengeriana', r23); type: cell-based; details: Botryosphaeriana berengeriana (first line), 1 mg/mL; for inhibition at 1000 µg/mL: mycelial growth
[25] = system: Phytophthora infestans; type: cell-based; details: Phytophthora infestans (first line); 1 mg/mL
[26] = system: Blumeria graminis f. sp. trilici; experiment: In-vivo control of wheat powdery mildew in a greenhouse; design: species or system Blumeria graminis f. sp. trilici on winter wheat
[27] = system: Rhizoctonia solani; experiment: Ex vivo mycelial growth, growth rate method; type: cell-based; details: 1 mg/mL; for inhibition at 1000 µg/mL: mycelial growth
[28] = system: Colletotrichum capsici; experiment: Ex vivo mycelial growth, growth rate method; type: cell-based; details: 1 mg/mL; for inhibition at 1000 µg/mL: Colletotrichum truncatum, mycelial growth
[29] = system: Phytophthora capsici; experiment: Ex vivo mycelial growth, growth rate method; type: cell-based; details: for antifungal activity on Phytophthora capsici compared with hymexazol: supplementary determination results
[30] = system: zucchini powdery mildew; experiment: Field efficiency test on zucchini powdery mildew; type: in vivo; details: 0.50 mg/mL
[31] = system: damping-off (P. aphanidermatum, P capsici); experiment: In-vivo control of eggplant damping-off in a greenhouse (sick soil); details: 0.80 mg/mL, 200 mL liquor per pot
Description: as §1

[32] = system: Pythium ultimum; experiment: Supplementary determination of antifungal activity; details: supplementary determination results
Description: (3) Ex Vivo Bioassay Method • The inhibition of samples for testing on the mycelial growth of plant pathogenic fungi for testing is determined with a growth rate method. […] Fungal cakes with a diameter of 4 mm are taken from the edge of the colony, inoculated into the center of a PDA plate containing different agents of different concentrations and the DMSO control, with one piece of fungal cake inoculated in each plate (with a diameter of 9 mm), and incubated in a constant temperature incubator at a temperature of 22±1.5° C. 7 days later (10˜20 days may be needed for some pathogenic fungi), the diameter of the colony is measured with a cross over method according to the mycelial growth profile of the control pathogenic fungi, then the inhibition rate of mycelial growth is calculated. The computational formula is as below: the inhibition rate of mycelial growth (%)=[(the diameter of the control colony−the diameter of the treated colony)/the diameter of the control colony]×100.

[33] = F. graminearum (second line), 1 mg/mL
[34] = mycelial growth, Phytophthora capsici, 1 mg/mL

SMILES: CCOC(=O)/C=C/c1ccc2c(c1)OCO2
- Average Diameter of the Colony [1]: 2.17 cm
- inhibition at 1000 µg/mL ([1]; mycelial growth): 71%
- Average Diameter of the Colony [2]: 3.75 cm
- inhibition at 1000 µg/mL [2]: 56.4%
- control effect on pepper damping-off [3]: 52%
- Average Diameter of the Colony [4, 33]: 1.73 cm
- inhibition at 1000 µg/mL [4]: 79.9%
- inhibition at 1000 µg/mL ([5]; read-out: inhibition rate on mycelial growth, range over 5 fungi): 88.8 to 100%
- Average Diameter of the Colony [6]: 6.97 cm
- inhibition at 1000 µg/mL ([6]; mycelial growth): 22.6%
- Control Effect ([7]; 0.20 mg/mL): 77.06%
- Control Effect ([7]; 0.333 mg/mL): 96.21%
- Control Effect ([7]; 0.50 mg/mL): 97.93%
- Average Diameter of the Colony ([8]; 1 mg/mL): 2.70 cm
- inhibition at 1000 µg/mL [8]: 25.6%
- Average Diameter of the Colony [9]: 2.91 cm
- inhibition at 1000 µg/mL [9]: 13.9%
- Average Diameter of the Colony [10]: 4.71 cm
- inhibition at 1000 µg/mL ([10]; mycelial growth): 45.2%
- Average Diameter of the Colony [11]: 0.75 cm
- inhibition at 1000 µg/mL ([11]; mycelial growth): 91.3%
- Average Diameter of the Colony [12]: 0.00 cm
- inhibition at 1000 µg/mL [12]: 100%
- Average Diameter of the Colony [13]: 2.45 cm
- inhibition at 1000 µg/mL [13]: 65.7%
- Average Diameter of the Colony [14]: 0.00 cm
- inhibition at 1000 µg/mL [14]: 100%
- Average Diameter of the Colony [15]: 1.74 cm
- inhibition at 1000 µg/mL ([15]; mycelial growth): 67.8%
- Average Diameter of the Colony [16]: 3.00 cm
- inhibition at 1000 µg/mL [16]: 43.9%
- Average Diameter of the Colony [17]: 2.58 cm
- inhibition at 1000 µg/mL ([17]; mycelial growth): 64.4%
- Average Diameter of the Colony [18]: 1.52 cm
- inhibition at 1000 µg/mL ([18]; mycelial growth): 75.5%
- Control Effect ([19]; 0.10 mg/mL): 75.92%
- Control Effect ([19]; 0.143 mg/mL): 95.20%
- Control Effect ([19]; 0.20 mg/mL): 95.49%
- Average Diameter of the Colony [20]: 2.60 cm
- inhibition at 1000 µg/mL [20]: 61.2%
- control effect on cucumber powdery mildew [21]: 80.95%
- Average Diameter of the Colony [22]: 3.45 cm
- inhibition at 1000 µg/mL [22]: 49.3%
- Average Diameter of the Colony [23]: 0.00 cm
- Average Diameter of the Colony [24]: 4.20 cm
- inhibition at 1000 µg/mL [24]: 26.3%
- Average Diameter of the Colony [25]: 2.01 cm
- Control Effect ([26]; 0.143 mg/mL): 74.28%
- Control Effect ([26]; 0.20 mg/mL): 77.65%
- Average Diameter of the Colony [27]: 0.80 cm
- inhibition at 1000 µg/mL [27]: 88.8%
- Average Diameter of the Colony [28]: 1.49 cm
- inhibition at 1000 µg/mL [28]: 78%
- Average Diameter of the Colony ([29]; Phytophthora capsici, 1 mg/mL): 1.42 cm
- inhibition at 1000 µg/mL [29, 34]: 73.2%
- antifungal activity on Phytophthora capsici compared with hymexazol [29]: superior to that of the control agent, hymexazol
- Control Effect [30]: 85.56%
- control effect on eggplant damping-off [31]: 53.63%

SMILES: CO/C=C(/C(=O)OC)c1ccccc1Oc1cc(Oc2ccccc2C#N)ncn1 [Azoxystrobin, azoxystrobin, reference compound]
- Inhibition Rate ([1]; mycelial growth): 51.89%
- Inhibition Rate ([4]; mycelial growth, F. graminearum (second line), 1 mg/mL): 30.78%
- Inhibition Rate ([6]; mycelial growth): 34.11%
- Inhibition Rate ([8]; mycelial growth, 1 mg/mL): 48.11%
- Inhibition Rate ([10]; mycelial growth): 51.11%
- Inhibition Rate ([11]; mycelial growth): 56.33%
- Inhibition Rate ([15]; mycelial growth): 40.33%
- Inhibition Rate ([17]; mycelial growth): 66.33%
- Inhibition Rate ([18]; mycelial growth): 27.78%
- Inhibition Rate ([23]; mycelial growth): 100%
- Inhibition Rate [29, 34]: 25.55%

SMILES: CCOC(=O)/C=C/c1ccc(OC)c(OC)c1 [ethyl 3-(3′,4′-dimethoxyphenyl) acrylate]
- Average Diameter of the Colony [1]: 0.61 cm
- inhibition at 1000 µg/mL ([1]; mycelial growth): 91.9%
- Average Diameter of the Colony [2]: 0.94 cm
- inhibition at 1000 µg/mL [2]: 89.1%
- control effect on pepper damping-off [3]: 64.57%
- Average Diameter of the Colony [4, 33]: 2.74 cm
- inhibition at 1000 µg/mL [4]: 68.1%
- inhibition at 1000 µg/mL ([5]; read-out: inhibition rate on mycelial growth, range over 12 fungi): 84.4 to 100%
- Average Diameter of the Colony [6]: 6.17 cm
- inhibition at 1000 µg/mL ([6]; mycelial growth): 31.4%
- Control Effect ([7]; 0.20 mg/mL): 81.83%
- Control Effect ([7]; 0.333 mg/mL): 95.52%
- Control Effect ([7]; 0.50 mg/mL): 98.63%
- Average Diameter of the Colony ([8]; 1 mg/mL): 5.47 cm
- inhibition at 1000 µg/mL [8]: 39.2%
- Average Diameter of the Colony [9]: 2.28 cm
- inhibition at 1000 µg/mL [9]: 32.5%
- Average Diameter of the Colony [10]: 1.34 cm
- inhibition at 1000 µg/mL ([10]; mycelial growth): 84.4%
- Average Diameter of the Colony [11]: 0.05 cm
- inhibition at 1000 µg/mL ([11]; mycelial growth): 99.4%
- Average Diameter of the Colony [12]: 0.00 cm
- inhibition at 1000 µg/mL [12]: 100%
- Average Diameter of the Colony [13]: 2.56 cm
- inhibition at 1000 µg/mL [13]: 64.2%
- Average Diameter of the Colony [14]: 0.00 cm
- inhibition at 1000 µg/mL [14]: 100%
- Average Diameter of the Colony [15]: 1.33 cm
- inhibition at 1000 µg/mL ([15]; mycelial growth): 75.4%
- Average Diameter of the Colony [16]: 1.40 cm
- inhibition at 1000 µg/mL [16]: 73.8%
- Average Diameter of the Colony [17]: 2.68 cm
- inhibition at 1000 µg/mL ([17]; mycelial growth): 63%
- Average Diameter of the Colony [18]: 0.56 cm
- inhibition at 1000 µg/mL ([18]; mycelial growth): 91%
- Control Effect ([19]; 0.10 mg/mL): 83.69%
- Control Effect ([19]; 0.143 mg/mL): 97.09%
- Control Effect ([19]; 0.20 mg/mL): 100%
- Average Diameter of the Colony [20]: 0.73 cm
- inhibition at 1000 µg/mL [20]: 89.1%
- control effect on cucumber powdery mildew [21]: 85.18%
- Average Diameter of the Colony [22]: 2.95 cm
- inhibition at 1000 µg/mL [22]: 56.6%
- Average Diameter of the Colony [23]: 0.00 cm
- Average Diameter of the Colony [24]: 1.58 cm
- inhibition at 1000 µg/mL [24]: 72.3%
- Average Diameter of the Colony [25]: 1.33 cm
- Control Effect ([26]; 0.143 mg/mL): 79.47%
- Control Effect ([26]; 0.20 mg/mL): 91.55%
- Average Diameter of the Colony [27]: 0.00 cm
- inhibition at 1000 µg/mL [27]: 100%
- antifungal activity on Pythium ultimum compared with carbendazim [32]: superior to that of the control agent, carbendazim
- Average Diameter of the Colony [28]: 0.83 cm
- inhibition at 1000 µg/mL [28]: 87.8%
- Average Diameter of the Colony ([29]; Phytophthora capsici, 1 mg/mL): 0.75 cm
- inhibition at 1000 µg/mL [29, 34]: 85.8%
- antifungal activity on Phytophthora capsici compared with hymexazol [29]: superior to that of the control agent, hymexazol
- Control Effect [30]: 91.93%
- control effect on eggplant damping-off [31]: 48.71%
